System: cataracts in rats
Test: Prevention or retardation of cataracts in galactose-fed rats
Type: in vivo, rat
Conditions: 0.0025% in diet
Description: The compounds to be tested were:
Test compound/diet mixtures were formulated as follows: […]
Similarly, the 0.01% level was designed to provide a drug concentration of 20 mg per kilogram per day.
All animals were fed the Purina Laboratory Chow and water, ad libitum for a two day acclimatization period. The indicated test compound/diet mixture then was introduced to all animals on Study Day 1 and the animals were maintained on this diet throughout thirty days of the study.
Sufficient amounts of test compound/diet mixture were maintained in the food hoppers to allow the animals to eat ad libitum. All aliquots of test compound/diet mixture added to the food hoopers were weighed and the weights, as well as day of addition, recorded.
Twelve animals were assigned to each treatment with each compound at the indicated percentage by total weight of feed. All eyes were examined with a handheld ophthalmoscope and/or penlight.

## O=C1NC(=O)C2(CCOc3ccc(F)cc32)N1 (single isomer, unassigned) [SARGES**, dspiro (6fluoro-chroman-4,4imidazolidine)-2',5dione, reference compound]
  time of suppression, time to vacuole formation: 20.8 days
30 days
  suppression of the formation of nuclear cataracts: 100%
